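Step 1: Grow cells in 96-well plates. Step 2: Expose to compound for 48 hours at 5 concentrations. Step 3: Interpolate endpoints linearly; if unreached, use highest concentration. Definition used: TGI = concentration required for complete inhibition of growth.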
How the values were obtained:
Assay in all cases: inhibition of tumour cell growth, NCI panel, 48 h
786-0 renal = test system: 786-0 renal
A498 renal = test system: A498 renal
A549 NSCLC = test system: A549 NSCLC
ACHN renal = test system: ACHN renal
CAKI-1 renal = test system: CAKI-1 renal
CCRF-CEM leukemia = test system: CCRF-CEM leukemia
COLO 205 colon = test system: COLO 205 colon
DLD-1 colon = test system: DLD-1 colon
DMS 273 small cell lung = test system: DMS 273 small cell lung
HCC-2998 colon = test system: HCC-2998 colon
HCT-116 colon = test system: HCT-116 colon
HCT-15 colon = test system: HCT-15 colon
HL-60(TB) leukemia = test system: HL-60(TB) leukemia
HOP-18 NSCLC = test system: HOP-18 NSCLC
HOP-62 NSCLC = test system: HOP-62 NSCLC
HOP-92 NSCLC = test system: HOP-92 NSCLC
HT29 colon = test system: HT29 colon
IGROV1 ovarian = test system: IGROV1 ovarian
K-562 leukemia = test system: K-562 leukemia
KM12 colon = test system: KM12 colon
KM20L2 colon = test system: KM20L2 colon
LOX IMVI melanoma = test system: LOX IMVI melanoma
LXFL 529 NSCLC = test system: LXFL 529 NSCLC
M14 melanoma = test system: M14 melanoma
MALME-3M melanoma = test system: MALME-3M melanoma
MOLT-4 leukemia = test system: MOLT-4 leukemia
NCI-H226 lung = test system: NCI-H226 lung
NCI-H23 lung = test system: NCI-H23 lung
NCI-H460 lung = test system: NCI-H460 lung
NCI-H522 lung = test system: NCI-H522 lung
OVCAR-3 ovarian = test system: OVCAR-3 ovarian
OVCAR-4 ovarian = test system: OVCAR-4 ovarian
OVCAR-5 ovarian = test system: OVCAR-5 ovarian
OVCAR-8 ovarian = test system: OVCAR-8 ovarian
RPMI-8226 leukemia = test system: RPMI-8226 leukemia
RXF 393 renal = test system: RXF 393 renal
SF-268 CNS = test system: SF-268 CNS
SF-295 CNS = test system: SF-295 CNS
SF-539 CNS = test system: SF-539 CNS
SK-MEL-2 melanoma = test system: SK-MEL-2 melanoma
SK-MEL-28 melanoma = test system: SK-MEL-28 melanoma
SK-MEL-5 melanoma = test system: SK-MEL-5 melanoma
SN12C renal = test system: SN12C renal
SNB-19 CNS = test system: SNB-19 CNS
SNB-75 CNS = test system: SNB-75 CNS
SNB-78 CNS = test system: SNB-78 CNS
SR leukemia = test system: SR leukemia
SW-620 colon = test system: SW-620 colon
TK-10 renal = test system: TK-10 renal
U251 CNS = test system: U251 CNS
UACC-257 melanoma = test system: UACC-257 melanoma
UACC-62 melanoma = test system: UACC-62 melanoma
UO-31 renal = test system: UO-31 renal
XF 498 CNS = test system: XF 498 CNS
DMS 114 small cell lung = test system: DMS 114 small cell lung
EKVX NSCLC = test system: EKVX NSCLC
M19-MEL melanoma = test system: M19-MEL melanoma
RXF-631 renal = test system: RXF-631 renal
SK-OV-3 ovarian = test system: SK-OV-3 ovarian

Measured: TGI

Cc1ccc(C)c(NC(=O)CC/C(=N\NC(=O)c2c(O)ccc3ccccc23)C(C)C(=O)c2ccc(O)cc2)c1 (stereo unspecified)
30 µM: KM20L2 colon
41.4 µM: M14 melanoma
91.9 µM: XF 498 CNS
39.6 µM: LOX IMVI melanoma
98.8 µM: NCI-H226 lung
90.2 µM: MALME-3M melanoma
42.6 µM: NCI-H522 lung
51.3 µM: COLO 205 colon
91.3 µM: NCI-H23 lung
89.2 µM: OVCAR-3 ovarian
71 µM: CCRF-CEM leukemia
75.9 µM: OVCAR-8 ovarian
84.6 µM: ACHN renal
80.5 µM: SF-539 CNS
34.3 µM: UACC-62 melanoma
90.3 µM: SR leukemia
83.8 µM: HOP-18 NSCLC
87.1 µM: UACC-257 melanoma
not listed: DMS 114 small cell lung | EKVX NSCLC | M19-MEL melanoma | RXF-631 renal | SK-OV-3 ovarian
> 100 µM: all other assays above

COc1ccc(C2=NN(c3ccccc3)C[N+](c3ccc(OC)cc3)=N2)cc1
63.1 µM: K-562 leukemia
39.1 µM: XF 498 CNS
64.6 µM: NCI-H226 lung
61 µM: SW-620 colon
83.4 µM: CCRF-CEM leukemia
92.1 µM: SNB-19 CNS
49.8 µM: U251 CNS
29.8 µM: SK-MEL-5 melanoma
46 µM: OVCAR-3 ovarian
61.9 µM: LOX IMVI melanoma
70 µM: OVCAR-5 ovarian
54.7 µM: KM12 colon
90.7 µM: MOLT-4 leukemia
72.1 µM: RXF 393 renal
30 µM: NCI-H522 lung
64 µM: DMS 114 small cell lung | OVCAR-4 ovarian
45.4 µM: LXFL 529 NSCLC
67.5 µM: RPMI-8226 leukemia
71.1 µM: UO-31 renal
47.1 µM: MALME-3M melanoma
66.1 µM: DMS 273 small cell lung
80.5 µM: SNB-78 CNS
93.1 µM: NCI-H23 lung
not listed: CAKI-1 renal | COLO 205 colon | HOP-18 NSCLC | HOP-92 NSCLC | M14 melanoma | SF-539 CNS | SK-MEL-2 melanoma | SNB-75 CNS | UACC-62 melanoma | RXF-631 renal | SK-OV-3 ovarian
> 100 µM: all other assays above

COc1ccc(C(=O)C(c2ccc(OC)cc2)C2(O)C(=O)Nc3c2ccc(Cl)c3C)cc1 (stereo unspecified)
not listed: CAKI-1 renal | DLD-1 colon | DMS 273 small cell lung | HOP-92 NSCLC | SF-539 CNS | SR leukemia | XF 498 CNS
> 100 µM: all other assays above

COc1ccc2ccccc2c1C1OC(=O)c2ccccc21 (stereo unspecified)
not listed: HCT-116 colon | LXFL 529 NSCLC | NCI-H460 lung | RXF 393 renal | SK-MEL-2 melanoma | SK-MEL-28 melanoma | SNB-75 CNS | SR leukemia | XF 498 CNS
> 100 µM: all other assays above

COc1ccc(OC)c2c1C(=O)C1CC1(Br)C2=O (stereo unspecified)
not listed: HOP-18 NSCLC | HOP-92 NSCLC | NCI-H226 lung | RXF 393 renal | SNB-75 CNS | SNB-78 CNS | SR leukemia | RXF-631 renal
> 100 µM: all other assays above

COc1ccc(/C=N/N=C(\N)NO)c(OC)c1
36.1 µM: OVCAR-5 ovarian
70.7 µM: SF-295 CNS
84.3 µM: HOP-62 NSCLC
43.7 µM: HCC-2998 colon
86.3 µM: LXFL 529 NSCLC
not listed: A498 renal | DMS 273 small cell lung | HL-60(TB) leukemia | HT29 colon | KM20L2 colon | M14 melanoma | NCI-H460 lung | NCI-H522 lung | SNB-75 CNS | SR leukemia | TK-10 renal | XF 498 CNS | RXF-631 renal
> 100 µM: all other assays above

COc1ccc(C(C#N)Cc2cc(OC)c(OC)c(OC)c2)cc1 (stereo unspecified)
49.3 µM: COLO 205 colon
45.2 µM: RXF 393 renal
63.4 µM: DMS 114 small cell lung
73.1 µM: A498 renal
71.9 µM: NCI-H522 lung
64.3 µM: HL-60(TB) leukemia
37.3 µM: SK-MEL-5 melanoma
54.4 µM: SF-295 CNS
not listed: HCC-2998 colon | KM20L2 colon | NCI-H23 lung | SK-MEL-2 melanoma | SNB-75 CNS | SR leukemia | XF 498 CNS | SK-OV-3 ovarian
> 100 µM: all other assays above

COc1cc2c(cc1OC)C(Cl)C(c1ccc(Cl)c(Cl)c1)=C2Cl (stereo unspecified)
28 µM: COLO 205 colon
32.7 µM: SK-MEL-28 melanoma
44.7 µM: EKVX NSCLC
14.7 µM: DMS 273 small cell lung
15.2 µM: OVCAR-3 ovarian
16 µM: NCI-H460 lung
21.8 µM: ACHN renal
16.7 µM: CCRF-CEM leukemia
5.75 µM: LOX IMVI melanoma
40.8 µM: MALME-3M melanoma
12.3 µM: MOLT-4 leukemia
28.9 µM: IGROV1 ovarian
12.6 µM: HCT-15 colon
50.1 µM: M14 melanoma
41.8 µM: SNB-19 CNS
32.2 µM: M19-MEL melanoma
9.47 µM: HL-60(TB) leukemia
17.2 µM: LXFL 529 NSCLC
33.7 µM: SNB-78 CNS
26.5 µM: SN12C renal
25.1 µM: CAKI-1 renal
15.9 µM: DMS 114 small cell lung
19.5 µM: OVCAR-8 ovarian
23.9 µM: NCI-H226 lung | SNB-75 CNS
20 µM: SW-620 colon
22 µM: SF-295 CNS
21.3 µM: SK-MEL-2 melanoma
> 100 µM: K-562 leukemia | NCI-H23 lung | NCI-H522 lung
40.5 µM: SK-OV-3 ovarian
37 µM: HOP-18 NSCLC
15.1 µM: HOP-92 NSCLC
12.8 µM: RPMI-8226 leukemia
48.7 µM: TK-10 renal
18.7 µM: UACC-62 melanoma
25.7 µM: KM20L2 colon
12.2 µM: HT29 colon
19.8 µM: SK-MEL-5 melanoma
22.2 µM: SF-539 CNS
34 µM: A498 renal
24.8 µM: UO-31 renal
16.4 µM: U251 CNS
